Data: patent US11465975B2, “Certain chemical entities, compositions, and methods” (NeuPharma, Inc., priority 2018, dated 2022)
Where “and” joins values, the source holds several entries; their conditions need not be identical. Equal values may be shown once.

Legend:
Type in all cases: physicochemical
[1] = Preliminary accelerated stability test of Form I, non-micronized and micronized (HPLC, XRPD, DSC); set-up: RRT 1.09: unit not given here; conditions: for Stability tested by HPLC, XRPD and DSC (degradation and crystal conversion): 40° C./75% RH and 60° C. for 2 weeks; for Assay % / Average Total impurity (%) / Average assay (%) / Peak area % / RRT 1.09 / Total impurity (%): solid, HPLC
Procedure: (§1) HPLCs were preformed using the following instrument and/or conditions.
(§2) Form I (both non-micronized and micronized) was used for the preliminary accelerated stability test. The samples were exposed to different stressed condition (40° C./75% RH and 60° C.) for 2 weeks. Standard controls were placed at −20° C. Samples and corresponding standard controls were pulled out for XRPD, DSC and HPLC analysis at 0 day, 1st week and 2nd week, respectively. The samples placed under condition without humidity were closed tightly with cap. The samples placed under humidity condition were just covered with aluminum foil with pinholes. HPLC steps were performed as described in Example 14.

[2] = Preliminary accelerated stability test of Form VI (HPLC, XRPD, DSC); conditions: for Assay % / Average assay (%) / Peak area % / Total impurity (%): solid; for Assay % / Average assay (%) / Peak area %: HPLC; for Total impurity (%): peak area normalized method
Procedure: as §1
as §2, with “Form VI of the compound of Formula” for “Form”, “I” for “I (both non-micronized and micronized)”

[3] = Competitive test of Form I and Form VI (suspension equilibration, XRPD check); conditions: for Check result at 7 days (form of residual solid, XRPD): room temperature; for Check result at 21 days (form of residual solid, XRPD): 14 days RT then 40° C.; for Check result at 14 days (form of residual solid, XRPD): 7 days RT then 40° C.
Procedure: X-ray powder diffraction (XRD) patterns were obtained on a Bruker D8 Advance. A CuK source (=1.54056 angstrom) operating minimally at 40 kV and 40 mA scans each sample between 4 and 40 degrees 2-theta. The step size is 0.05° C. and scan speed is 0.5 second per step.
Two polymorphic forms of the compound of Formula I, Form I and Form VI, were suspended at the ratio of 1:1 in various solvents and equilibrated at room temperature for a period of time. The forms of the residual solid were checked at 7 days. If still a mixed form, continued to equilibrate at room temperature or 40° C. The solvents were EtOAc, iPoAc, Acetone, MEK, EtOH, IPA, IPE, MTBE, Hexane and Heptane.
XRPD profiles were acquired at the beginning and end of the experiment and compared to XRPD patterns of the known forms.

Structure (SMILES): C=CC(=O)Nc1cccc(-c2cccc3cnc(Nc4ccc(N5CCN(CCO)CC5)c(F)c4F)nc23)c1 [non-micronized Form I, N-(3-(2-((2,3-difluoro-4-(4-(2-hydroxyethyl)piperazin-1-yl)phenyl)amino)quinazolin-8-yl)phenyl)acrylamide]
- Stability tested by HPLC, XRPD and DSC (degradation and crystal conversion) [1]: No significant degradation and crystal conversion were detected
- Assay % ([1]; 40° C./75% RH, 7 d): 98.28% and 98.59%
- Average Total impurity (%) ([1]; 40° C./75% RH, 7 d): 0.88%
- Average assay (%) ([1]; 40° C./75% RH, 7 d): 98.44%
- Peak area % ([1]; 40° C./75% RH, 7 d): 99.12%
- RRT 1.09 ([1]; 40° C./75% RH, 7 d): 0.027 and 0.032
- Total impurity (%) ([1]; 40° C./75% RH, 7 d): 0.88%
- Assay % ([1]; 40° C./75% RH, 14 d): 98.24% and 97.53%
- Average Total impurity (%) ([1]; 40° C./75% RH, 14 d): 0.86%
- Average assay (%) ([1]; 40° C./75% RH, 14 d): 97.88%
- Peak area % ([1]; 40° C./75% RH, 14 d): 99.14%
- RRT 1.09 ([1]; 40° C./75% RH, 14 d): 0.026 and 0.027
- Total impurity (%) ([1]; 40° C./75% RH, 14 d): 0.86%
- Assay % ([1]; 60° C., 7 d): 95.99% and 98.78%
- Average Total impurity (%) ([1]; 60° C., 7 d): 0.85%
- Average assay (%) ([1]; 60° C., 7 d): 97.38%
- Peak area % ([1]; 60° C., 7 d): 99.15%
- RRT 1.09 ([1]; 60° C., 7 d): 0.030 and 0.028
- Total impurity (%) ([1]; 60° C., 7 d): 0.85%
- Assay % ([1]; 60° C., 14 d): 98.38% and 99.25%
- Average Total impurity (%) ([1]; 60° C., 14 d): 0.85%
- Average assay (%) ([1]; 60° C., 14 d): 98.81%
- Peak area % ([1]; 60° C., 14 d): 99.17% and 99.14%
- RRT 1.09 ([1]; 60° C., 14 d): 0.028
- Total impurity (%) ([1]; 60° C., 14 d): 0.83% and 0.86%
- Assay % ([1]; RT): 98.98% and 99.18%
- Average Total impurity (%) ([1]; RT): 0.84%
- Average assay (%) ([1]; RT): 99.08%
- Peak area % ([1]; RT): 99.18% and 99.14%
- RRT 1.09 ([1]; RT): 0.027
- Total impurity (%) ([1]; RT): 0.82% and 0.86%

Structure (SMILES): C=CC(=O)Nc1cccc(-c2cccc3cnc(Nc4ccc(N5CCN(CCO)CC5)c(F)c4F)nc23)c1 [micronized Form I, N-(3-(2-((2,3-difluoro-4-(4-(2-hydroxyethyl)piperazin-1-yl)phenyl)amino)quinazolin-8-yl)phenyl)acrylamide]
- Stability tested by HPLC, XRPD and DSC (degradation and crystal conversion) [1]: No significant degradation and crystal conversion were detected
- Assay % ([1]; 40° C./75% RH, 7 d): 97.67% and 97.30%
- Average Total impurity (%) ([1]; 40° C./75% RH, 7 d): 0.86%
- Average assay (%) ([1]; 40° C./75% RH, 7 d): 97.48%
- Peak area % ([1]; 40° C./75% RH, 7 d): 99.14%
- RRT 1.09 ([1]; 40° C./75% RH, 7 d): 0.029 and 0.024
- Total impurity (%) ([1]; 40° C./75% RH, 7 d): 0.86%
- Assay % ([1]; 40° C./75% RH, 14 d): 96.20% and 98.00%
- Average Total impurity (%) ([1]; 40° C./75% RH, 14 d): 0.88%
- Average assay (%) ([1]; 40° C./75% RH, 14 d): 97.10%
- Peak area % ([1]; 40° C./75% RH, 14 d): 99.11% and 99.12%
- RRT 1.09 ([1]; 40° C./75% RH, 14 d): 0.028
- Total impurity (%) ([1]; 40° C./75% RH, 14 d): 0.89% and 0.88%
- Assay % ([1]; 60° C., 7 d): 98.46% and 97.35%
- Average Total impurity (%) ([1]; 60° C., 7 d): 0.85%
- Average assay (%) ([1]; 60° C., 7 d): 97.90%
- Peak area % ([1]; 60° C., 7 d): 99.15%
- RRT 1.09 ([1]; 60° C., 7 d): 0.022 and 0.028
- Total impurity (%) ([1]; 60° C., 7 d): 0.85%
- Assay % ([1]; 60° C., 14 d): 98.52% and 98.23%
- Average Total impurity (%) ([1]; 60° C., 14 d): 0.87%
- Average assay (%) ([1]; 60° C., 14 d): 98.37%
- Peak area % ([1]; 60° C., 14 d): 99.12% and 99.13%
- RRT 1.09 ([1]; 60° C., 14 d): 0.027 and 0.028
- Total impurity (%) ([1]; 60° C., 14 d): 0.88% and 0.87%
- Assay % ([1]; RT): 98.74% and 98.36%
- Average Total impurity (%) ([1]; RT): 0.84%
- Average assay (%) ([1]; RT): 98.55%
- Peak area % ([1]; RT): 99.14% and 99.18%
- RRT 1.09 ([1]; RT): 0.029 and 0.024
- Total impurity (%) ([1]; RT): 0.86% and 0.82%

Structure (SMILES): C=CC(=O)Nc1cccc(-c2cccc3cnc(Nc4ccc(N5CCN(CCO)CC5)c(F)c4F)nc23)c1 [Form VI, N-(3-(2-((2,3-difluoro-4-(4-(2-hydroxyethyl)piperazin-1-yl)phenyl)amino)quinazolin-8-yl)phenyl)acrylamide]
- Stability tested by HPLC, XRPD and DSC (degradation and crystal conversion) ([2]; 40° C./75% RH and 60° C. for 2 weeks): No significant degradation and crystal conversion were detected
- Assay % ([2]; 40° C./75% RH, 7 days): 91.50% and 91.85%
- Average assay (%) ([2]; 40° C./75% RH, 7 days): 91.67%
- Peak area % ([2]; 40° C./75% RH, 7 days): 99.0% and 99.1%
- Total impurity (%) ([2]; 40° C./75% RH, 7 days): 0.98% and 0.95%
- Assay % ([2]; 40° C./75% RH, 14 days): 92.13% and 91.45%
- Average assay (%) ([2]; 40° C./75% RH, 14 days): 91.79%
- Peak area % ([2]; 40° C./75% RH, 14 days): 99.0%
- Total impurity (%) ([2]; 40° C./75% RH, 14 days): 0.99% and 0.96%
- Assay % ([2]; 60° C., 7 days): 91.61% and 93.76%
- Average assay (%) ([2]; 60° C., 7 days): 92.68%
- Peak area % ([2]; 60° C., 7 days): 98.9% and 99.0%
- Total impurity (%) ([2]; 60° C., 7 days): 1.10% and 1.04%
- Assay % ([2]; 60° C., 14 days): 91.82% and 91.77%
- Average assay (%) ([2]; 60° C., 14 days): 91.80%
- Peak area % ([2]; 60° C., 14 days): 99.0% and 99.1%
- Total impurity (%) ([2]; 60° C., 14 days): 1.01% and 0.94%
- Assay % ([2]; −20° C. (standard control)): 92.15% and 92.28%
- Average assay (%) ([2]; −20° C. (standard control)): 92.21%
- Peak area % ([2]; −20° C. (standard control)): 99.0%
- Total impurity (%) ([2]; −20° C. (standard control)): 0.95% and 0.98%

Structure (SMILES): C=CC(=O)Nc1cccc(-c2cccc3cnc(Nc4ccc(N5CCN(CCO)CC5)c(F)c4F)nc23)c1 [Form I and Form VI, N-(3-(2-((2,3-difluoro-4-(4-(2-hydroxyethyl)piperazin-1-yl)phenyl)amino)quinazolin-8-yl)phenyl)acrylamide]
- Check result at 7 days (form of residual solid, XRPD) ([3]; 1:1 suspension in EtOH): Form III and Form VI
- Check result at 7 days (form of residual solid, XRPD) ([3]; 1:1 suspension in IPA): Form VI
- Check result at 7 days (form of residual solid, XRPD) ([3]; 1:1 suspension in MEK): Form I
- Check result at 21 days (form of residual solid, XRPD) ([3]; 1:1 suspension in MTBE): Form I
- Check result at 7 days (form of residual solid, XRPD) ([3]; 1:1 suspension in acetone): Form I
- Check result at 14 days (form of residual solid, XRPD) ([3]; 1:1 suspension in ethyl acetate (EtOAc)): Form I
- Check result at 21 days (form of residual solid, XRPD) ([3]; 1:1 suspension in heptane): Mixed
- Check result at 21 days (form of residual solid, XRPD) ([3]; 1:1 suspension in hexane): Mixed
- Check result at 14 days (form of residual solid, XRPD) ([3]; 1:1 suspension in isopropyl acetate (iPoAc)): Form I
- Check result at 21 days (form of residual solid, XRPD) ([3]; 1:1 suspension in isopropyl ether (IPE)): Mixed
